A short description of the series: Human HepG2 cell viability assay in 384 well format. To be noted: HepG2 cells, read-out: Inhibition. More on the design: dose 125 nL, time 70.5 hour; concentration not given beside the values. The class given is toxicity, cell-based.

The structures appear in SMILES notation.

Data on 95 compounds can be found in ChEMBL document CHEMBL3507680, “University of Dundee, Gates Library screen for HepG2 cell viability”.

Turning to `O=C(c1cc(C2CC2)on1)N1CCC(Oc2ncccc2Cl)CC1`, the cytotoxicity at 70.5 h is -6.96%.

As to `N#Cc1cccnc1OC1CCN(C(=O)c2cc(C3CC3)on2)CC1`, the cytotoxicity at 70.5 h is -6.54%.

With `N#Cc1cccnc1OC1CCN(S(=O)(=O)c2ccc(Br)cc2)CC1`, the cytotoxicity at 70.5 h is -12.9%.

Consider `Cn1nc(C(=O)N2CCC(Oc3ccc(C#N)cn3)CC2)ccc1=O`, for which the cytotoxicity at 70.5 h is -11%.

`CN1CCCC(C(=O)N2CCC(Oc3ccc(C#N)cn3)CC2)C1` (stereo not given): the cytotoxicity at 70.5 h is -5.58%.

For `N#Cc1ccc(C(=O)N2CCC(Oc3ccc(C#N)cn3)CC2)cc1`, the cytotoxicity at 70.5 h was -3.02%.

On to `O=C(Cn1ccc2ccccc21)N1CCC(Oc2cnccn2)CC1`, for which the cytotoxicity at 70.5 h was -7%.

For the compound `O=C(Cn1cccn1)N1CCC(Oc2cnccn2)CC1`, the cytotoxicity at 70.5 h is -6.46%.

Regarding `CN(C)S(=O)(=O)N1CCC(Oc2cccnn2)CC1`, the cytotoxicity at 70.5 h came to 0.601%.

Regarding `Cc1ccc(S(=O)(=O)N2CCC(Oc3cccnn3)CC2)c(C)c1`, the cytotoxicity at 70.5 h is -8.17%.

Take `COC(=O)c1ccc(S(=O)(=O)N2CCC(Oc3cccnn3)CC2)cc1`: the cytotoxicity at 70.5 h is -8.01%.

Take `O=C(Cn1ccc2ccccc21)N1CCC(Oc2ncccc2Br)CC1`: the cytotoxicity at 70.5 h is -3.13%.

On to `Cc1cccc(OC2CCN(C(=O)c3ccc4c(c3)OCO4)CC2)n1`, for which the cytotoxicity at 70.5 h was -7.71%.

On to `Cc1cccc(OC2CCN(S(=O)(=O)Cc3cccc(F)c3)CC2)n1`, for which the cytotoxicity at 70.5 h is -1.18%.

In the case of `COC(=O)c1sccc1S(=O)(=O)N1CCC(Oc2cccc(C)n2)CC1`, the cytotoxicity at 70.5 h was -9.62%.

On to `O=C(COc1ccc(-n2cccn2)nn1)NC1CCCCC1`, for which the cytotoxicity at 70.5 h came out at 0.192%.

For the compound `O=C(Nc1cnc(Oc2ccccc2F)nc1)C1CC1`, the cytotoxicity at 70.5 h was -3.71%.

Consider `Cc1ccc(C)c(S(=O)(=O)NCCNc2ccc(-n3cccc3)nn2)c1`, for which the cytotoxicity at 70.5 h was -7.55%.

Turning to `CC(=O)N1CCN(c2cc(-n3cccc3)ncn2)CC1`, the cytotoxicity at 70.5 h was -7.94%.

For `CS(=O)(=O)N1CCCC12CCCN(C(=O)c1ccc3c(c1)OCO3)C2` (stereo not given), the cytotoxicity at 70.5 h is -7.38%.

As to `COCC(=O)N1CCC2(CC(=O)N(c3cccc(F)c3)C2)C1` (stereo not given), the cytotoxicity at 70.5 h was -9.01%.

In the case of `Cc1noc(C)c1CN1C[C@@H]2OCCN(Cc3cnn(C)c3)[C@@H]2C1`, the cytotoxicity at 70.5 h was -21.6%.

Turning to `CN1CCN(C(=O)c2n[nH]c3c2CCN(Cc2nccs2)C3)CC1`, the cytotoxicity at 70.5 h was -11.9%.

In the case of `COCC1c2nnn(CC3CC3)c2CCN1C(=O)N1CCCC1` (stereo not given), the cytotoxicity at 70.5 h stood at 14.1%.

Take `COCC1c2nnn(CC3CC3)c2CCN1C(=O)c1cccn1C` (stereo not given): the cytotoxicity at 70.5 h was determined as 9.68%.

Regarding `CC(C)NC(=O)N1CCCn2cnc(CN3CCCC3=O)c2C1`, the cytotoxicity at 70.5 h came to 27.9%.

On to `Cc1noc(C2CCC3(CCN(C(=O)c4cnccn4)CC3)O2)n1` (stereo not given), for which the cytotoxicity at 70.5 h came to 3.99%.

`Cc1noc(C2CCC3(CCN(C(=O)C4CCOCC4)CC3)O2)n1` (stereo not given): the cytotoxicity at 70.5 h was 2.64%.

Regarding `CCS(=O)(=O)N1CCc2cc(C(=O)N(C)C)c(NCC3CC3)nc2CC1`, the cytotoxicity at 70.5 h came out at 0.785%.

Take `Cc1occc1C(=O)N1CCCn2cnc(CN3CCCC3=O)c2C1`: the cytotoxicity at 70.5 h is -0.779%.

For the compound `CN(C)C(=O)N1CCC2(CC1)COCCN(c1ncccn1)C2`, the cytotoxicity at 70.5 h is -3.19%.

With `Cc1cc(C(=O)N2CCc3ncnc(-c4cnn(C)c4)c3CC2)no1`, the cytotoxicity at 70.5 h was determined as 2.85%.

In the case of `Cc1ccccc1C(=O)N1CCCn2cnc(CN3CCCC3=O)c2C1`, the cytotoxicity at 70.5 h is -4.3%.

Consider `CC(C)NC(=O)N1CCC2(CC1)COc1ccccc1S(=O)(=O)N(C)C2`, for which the cytotoxicity at 70.5 h came out at 0.573%.

Regarding `CCOCC1CN(S(=O)(=O)C2CC2)Cc2ncn(CC3CC3)c21` (stereo not given), the cytotoxicity at 70.5 h was -4.92%.

With `Cc1ccc(C(=O)N2CCc3ncnc(-c4cnn(C)c4)c3CC2)o1`, the cytotoxicity at 70.5 h was -7.08%.

In the case of `COCC1CN(S(=O)(=O)C2CC2)Cc2ncn(CC3CC3)c21` (stereo not given), the cytotoxicity at 70.5 h was -1.47%.

On to `O=C1CCCN1Cc1ncn2c1CN(C(=O)Cc1ccccc1)CCC2`, for which the cytotoxicity at 70.5 h is 0.61%.

Consider `Cc1noc(C2CCC3(CCN(C(=O)c4cnn(C)c4)CC3)O2)n1` (stereo not given), for which the cytotoxicity at 70.5 h was -10.3%.

Take `CN(C)CC(=O)N1CCC2(CC1)COc1ccccc1S(=O)(=O)N(C)C2`: the cytotoxicity at 70.5 h stood at 0.316%.

Take `COCC(=O)N1CCC2(CC1)COc1ccccc1S(=O)(=O)N(C)C2`: the cytotoxicity at 70.5 h worked out at 0.748%.

Regarding `COCC1CN(C(=O)CS(C)(=O)=O)Cc2ncn(CC3CC3)c21` (stereo not given), the cytotoxicity at 70.5 h was 1.88%.

With `Cc1cccc(S(=O)(=O)N2CCCC3(CCCN3S(C)(=O)=O)C2)c1` (stereo not given), the cytotoxicity at 70.5 h is 3.22%.

As to `COCc1ncn2c1CN(C(=O)Nc1ccccc1)CC2`, the cytotoxicity at 70.5 h was -4.33%.

For `COCC(=O)N1CCC2(COCc3cnc(NCc4ccco4)nc32)C1` (stereo not given), the cytotoxicity at 70.5 h is -2.26%.

Consider `Cc1nccc([C@H]2C[C@@H]3CCN(S(=O)(=O)C4CC4)C[C@H]3O2)n1`, for which the cytotoxicity at 70.5 h was 0.462%.

For the compound `Cc1nccc([C@@H]2C[C@@H]3CCN(S(=O)(=O)C4CC4)C[C@H]3O2)n1`, the cytotoxicity at 70.5 h was -1.95%.

As for `CS(=O)(=O)N1CCCC12CCCN(S(=O)(=O)c1cccc(F)c1)C2` (stereo not given), the cytotoxicity at 70.5 h was 2.16%.

As for `CNC(=O)[C@@]12CCC3(CCNCC3)[C@@H]1CN(S(C)(=O)=O)C2`, the cytotoxicity at 70.5 h was 4.08%.

As for `COCC1CN(Cc2ccsc2)Cc2cnn(C)c21` (stereo not given), the cytotoxicity at 70.5 h is -2.85%.

For the compound `N#Cc1ccc(C(=O)N2C[C@H](OCc3cccnc3)[C@H]3COC[C@H]32)cc1`, the cytotoxicity at 70.5 h is 3.47%.

On to `O=C1CC2(CCN(c3nncs3)C2)CN1c1cccc(F)c1` (stereo not given), for which the cytotoxicity at 70.5 h is -3.52%.

On to `O=C(c1ccc[nH]1)N1C[C@H](OCc2ccccn2)[C@H]2COC[C@H]21`, for which the cytotoxicity at 70.5 h is -5.92%.

With `O=c1ccc2c([nH]1)CCC(NCc1ccncc1)C2` (stereo not given), the cytotoxicity at 70.5 h is -2.51%.

Take `O=C1CC2(CCN(c3nncs3)C2)CN1c1cncnc1` (stereo not given): the cytotoxicity at 70.5 h was -0.39%.

Consider `CCCC(=O)N1CCC2(CC1)CN(Cc1cccc(C)n1)C(=O)CO2`, for which the cytotoxicity at 70.5 h turned out to be 0.856%.

Consider `COc1ccc(Br)c(C(=O)NCC2CCN(C(=O)c3ccoc3)CC2)c1`, for which the cytotoxicity at 70.5 h stood at 0.959%.

In the case of `CC(=O)NCCN1CCC(c2cccs2)CC1`, the cytotoxicity at 70.5 h is 0.738%.

In the case of `O=C(NCCN1CCC(c2cccs2)CC1)Nc1cccs1`, the cytotoxicity at 70.5 h was -3.14%.

As for `CSCC(C)(O)CNC(=O)c1cc(Br)ccc1Cl` (stereo not given), the cytotoxicity at 70.5 h turned out to be 16.5%.

For `O=S(=O)(NCC1(O)CCOc2ccccc21)c1cccs1` (stereo not given), the cytotoxicity at 70.5 h was 3.15%.

For the compound `COC(=O)c1sccc1S(=O)(=O)NCC1(O)CCOc2ccccc21` (stereo not given), the cytotoxicity at 70.5 h was -4.94%.

On to `O=S(=O)(NCC1(O)CCOc2ccccc21)c1ccc(Br)s1` (stereo not given), for which the cytotoxicity at 70.5 h was 3.29%.

As for `O=C(c1cnn2c1OCCC2)N1CCN(C/C=C/c2ccccc2)CC1`, the cytotoxicity at 70.5 h is 7.17%.

Take `O=C(NCc1ccccn1)c1nnn(-c2ccc(Br)cc2)n1`: the cytotoxicity at 70.5 h was 10.5%.

For `O=C(c1cocn1)N1CC[C@H]2OCC[C@@]2(COc2ncccc2F)C1`, the cytotoxicity at 70.5 h was -15.1%.

On to `COCC1CN(S(=O)(=O)N(C)C)Cc2ncn(CC3CC3)c21` (stereo not given), for which the cytotoxicity at 70.5 h came out at 2.72%.

For `CCOCC(=O)N1CCOCC2(CCN(c3ncccn3)C2)C1` (stereo not given), the cytotoxicity at 70.5 h came to 2.44%.

Consider `O=C(NCC1CC1)[C@@H]1CC[C@@H]2[C@@H](CCN2Cc2ccc(F)c(F)c2)O1`, for which the cytotoxicity at 70.5 h stood at 2.42%.

Regarding `COc1ccc(CN2CC[C@H]3O[C@@H](C(=O)NCC4CC4)CC[C@H]32)cc1`, the cytotoxicity at 70.5 h was -8.24%.

Consider `Cc1ccc(CN2Cc3nnn(C)c3C(COCc3ccccc3)C2)s1` (stereo not given), for which the cytotoxicity at 70.5 h is 4.74%.

With `COCc1ncn2c1CN(C(=O)c1ccc3ccccc3n1)CC2`, the cytotoxicity at 70.5 h turned out to be 6.36%.

With `CS(=O)(=O)NC1CC2(CCN(CCF)CC2)Oc2ccccc21` (stereo not given), the cytotoxicity at 70.5 h is -4.96%.

Regarding `CN(C)C(=O)COC[C@]12COC[C@H]1CN(Cc1ccco1)C2`, the cytotoxicity at 70.5 h is 0.692%.

With `O=C(c1ccncc1F)N1CC[C@@H]2OC(COCC3CC3)CC[C@@H]21` (stereo not given in full), the cytotoxicity at 70.5 h came out at 5.27%.

Take `CC(C)CN1CCC2(CC1)CC(NS(C)(=O)=O)c1ccccc1O2` (stereo not given): the cytotoxicity at 70.5 h is 3.23%.

With `CC(C)CN1CCC2(CC1)C(=O)Nc1ccc(C(=O)NC(C)C)cc12`, the cytotoxicity at 70.5 h was -0.986%.

As to `CC(C)NC(=O)c1ccc2c(c1)C1(CCN(C)CC1)C(=O)N2`, the cytotoxicity at 70.5 h was 2.1%.

Turning to `CC(C)NC(=O)N1C[C@H](OCc2cccnc2)[C@H]2COC[C@H]21`, the cytotoxicity at 70.5 h is 0.936%.

On to `O=C(CC1CCC2(CC1)CCN(Cc1ccncc1)CC2)N1CCCC1`, for which the cytotoxicity at 70.5 h was found to be 6.54%.

For `O=c1ccc2c([nH]1)CCC(NCc1ccc(F)cc1)C2` (stereo not given), the cytotoxicity at 70.5 h was -5.16%.

Take `CNC(=O)CN1CC[C@H]2CN(C(=O)c3cccn3C)C[C@H]2C1`: the cytotoxicity at 70.5 h is -5.44%.

In the case of `O=C1CC2(CCN(Cc3cccnc3)C2)CN1c1cccc(F)c1` (stereo not given), the cytotoxicity at 70.5 h was -16.5%.

As to `Cc1ccc2c(n1)N(CCn1cccn1)CCN(CC1CC1)C2`, the cytotoxicity at 70.5 h was -3.95%.

Take `Cc1ccc2c(n1)N(CCn1cccn1)CCN(C1CCOCC1)C2`: the cytotoxicity at 70.5 h is -5.52%.

`Cc1ccc(CN2Cc3nnn(C)c3C(COCc3ccccn3)C2)s1` (stereo not given): the cytotoxicity at 70.5 h was -0.991%.

Turning to `COCCN1CCc2cc(C(=O)NC(C)C)c(NCC3CC3)nc2CC1`, the cytotoxicity at 70.5 h is -0.245%.

With `CCn1nnc2c1C(COCCN(C)C)CN(Cc1ccc(C)s1)C2` (stereo not given), the cytotoxicity at 70.5 h is 3.05%.

`CC(C)CCN1CCc2cc(C(=O)N(C)C)c(NCC3CC3)nc2CC1`: the cytotoxicity at 70.5 h was found to be 5.09%.

Turning to `COCCO[C@H]1CCN(Cc2ccsc2)[C@H]1Cc1cccnc1`, the cytotoxicity at 70.5 h amounted to 24.4%.

Turning to `O=C(Cc1ccccn1)N1C[C@H](OCc2cccnc2)[C@H]2COC[C@H]21`, the cytotoxicity at 70.5 h stood at 0.247%.

In the case of `c1cncc(C2COC3(CCN(CC4CCOCC4)CC3)C2)c1` (stereo not given), the cytotoxicity at 70.5 h is 1.21%.

Regarding `CCn1ncc2c1C(COC)CN(Cc1cccnc1)C2` (stereo not given), the cytotoxicity at 70.5 h worked out at 21.4%.

For `CN(C)CCN1CCN(Cc2ccco2)Cc2cccnc21`, the cytotoxicity at 70.5 h is -4.07%.

For `c1cncc(CN2CCC3(CC2)CC(c2cccnc2)CO3)c1` (stereo not given), the cytotoxicity at 70.5 h was -6.23%.
